Reference: patent publication US8420216B2, “Thermosetting resin composition” (Showa Denko K.K., priority 2007, dated 2013)
Values joined by “and” are separate entries in the source; they are usually repeats but may differ in a detail not shown here. Identical values can stand only once. Like-named read-outs stand apart in the source and are kept apart here.

Assay: pKa of curing accelerator (dissociation constant of aqueous solution at 25° C.)
Format: physicochemical
Procedure: The “pKa value” referred to in the invention is a numerical value represented by the following formula when the dissociation constant of an aqueous solution at 25° C. is denoted by “Ka”. The dissociation constant Ka of the aqueous solution is determined by, for example, measuring a hydrogen ion concentration of the aqueous solution by a pH meter and calculating concentrations of a dissociated component and an undissociated component after dissolution by the use of the resulting hydrogen ion concentration and weighed values of the solvate and water before dissolution. pKa=−log10 Ka

[1] = aqueous solution at 25° C., values in text
[2] = aqueous solution, of the curing accelerator, Table 1, read-out: pKa

| SMILES | pKa [1] | pKa (aqueous solution, aqueous solution at 25° C., values in text, read-out: pKa) | pKa [2] | pKa (of the curing accelerator, Table 1) | pKa (aqueous solution at 25° C., values in text, read-out: pKa) |
| --- | --- | --- | --- | --- | --- |
| Cc1ncc[nH]1 [2-methylimidazole] | 7.9 | 7.88 | 7.9 | – | – |
| C1CCC2=NCCCN2CC1 [DBU, 1,8-diazabicyclo[5.4.0]undecene-7] | 12.5 | – | – | 12.7 and 12.5 | – |
| Nc1nc(N)nc(N)n1 [melamine] | – | – | 5 | – | 5 |
